Measurements: ChEMBL document CHEMBL3046521, “Synthesis and antitumor activity of (4-hydroxyphenyl)[5-substituted alkyl/aryl)-2-thioxo-1,3,4-thiadiazol-3-yl]methanone and [(3,4-disubstituted)-1,3-thiazol-2ylidene]-4-hydroxybenzohydrazide” (2011)

Columns and labels:
Format in all cases: functional
DU-145 = experiment: Cytotoxicity against Homo sapiens (human) DU145 cells after 48 hr by sulforhodamine B assay; conditions: DU-145, 48 h
786-0 = experiment: Cytotoxicity against Homo sapiens (human) 786-0 cells after 48 hr by sulforhodamine B assay; conditions: 786-0, 48 h
RXF 393 = experiment: Cytotoxicity against Homo sapiens (human) RXF393 cells after 48 hr by sulforhodamine B assay; conditions: RXF 393, 48 h
UO-31 = experiment: Cytotoxicity against Homo sapiens (human) UO31 cells after 48 hr by sulforhodamine B assay; conditions: UO-31, 48 h
A549 = experiment: Cytotoxicity against Homo sapiens (human) A549 cells after 48 hr by sulforhodamine B assay; conditions: A549, 48 h
SF-539 = experiment: Cytotoxicity against Homo sapiens (human) SF539 cells after 48 hr by sulforhodamine B assay; conditions: SF-539, 48 h
LOX IMVI = experiment: Cytotoxicity against Homo sapiens (human) LOXIMVI cells after 48 hr by sulforhodamine B assay
SR = experiment: Cytotoxicity against Homo sapiens (human) SR cells after 48 hr by sulforhodamine B assay
OVCAR-4 = experiment: Cytotoxicity against Homo sapiens (human) OVCAR4 cells after 48 hr by sulforhodamine B assay; conditions: OVCAR-4, 48 h
T47D = experiment: Cytotoxicity against Homo sapiens (human) T47D cells after 48 hr by sulforhodamine B assay
ACHN = experiment: Cytotoxicity against Homo sapiens (human) ACHN cells after 48 hr by sulforhodamine B assay
SK-MEL-2 = experiment: Cytotoxicity against Homo sapiens (human) SK-MEL-2 cells after 48 hr by sulforhodamine B assay; conditions: SK-MEL-2, 48 h
UACC-257 = experiment: Cytotoxicity against Homo sapiens (human) UACC257 cells after 48 hr by sulforhodamine B assay; conditions: UACC-257, 48 h
OVCAR-5 = experiment: Cytotoxicity against Homo sapiens (human) OVCAR5 cells after 48 hr by sulforhodamine B assay; conditions: OVCAR-5, 48 h
U-251 = experiment: Cytotoxicity against Homo sapiens (human) U251 cells after 48 hr by sulforhodamine B assay; conditions: U-251, 48 h
NCI-H460 = experiment: Cytotoxicity against Homo sapiens (human) NCI-H460 cells after 48 hr by sulforhodamine B assay; conditions: NCI-H460, 48 h
UACC-62 = experiment: Cytotoxicity against Homo sapiens (human) UACC62 cells after 48 hr by sulforhodamine B assay; conditions: UACC-62, 48 h
[1] = Cytotoxicity against Homo sapiens (human) NCI-ADR-RES cells after 48 hr by sulforhodamine B assay
TK-10 = experiment: Cytotoxicity against Homo sapiens (human) TK10 cells after 48 hr by sulforhodamine B assay; conditions: TK-10, 48 h
K562 = experiment: Cytotoxicity against Homo sapiens (human) K562 cells after 48 hr by sulforhodamine B assay; conditions: K562, 48 h
KM12 = experiment: Cytotoxicity against Homo sapiens (human) KM12 cells after 48 hr by sulforhodamine B assay; conditions: KM12, 48 h
SK-MEL-28 = experiment: Cytotoxicity against Homo sapiens (human) SK-MEL-28 cells after 48 hr by sulforhodamine B assay; conditions: SK-MEL-28, 48 h
EKVX = experiment: Cytotoxicity against Homo sapiens (human) EKVX cells after 48 hr by sulforhodamine B assay
SF-268 = experiment: Cytotoxicity against Homo sapiens (human) SF268 cells after 48 hr by sulforhodamine B assay; conditions: SF-268, 48 h
NCI-H226 = experiment: Cytotoxicity against Homo sapiens (human) NCI-H226 cells after 48 hr by sulforhodamine B assay; conditions: NCI-H226, 48 h
PC-3 = experiment: Cytotoxicity against Homo sapiens (human) PC3 cells after 48 hr by sulforhodamine B assay; conditions: PC-3, 48 h
HCT-15 = experiment: Cytotoxicity against Homo sapiens (human) HCT15 cells after 48 hr by sulforhodamine B assay; conditions: HCT-15, 48 h
SF-295 = experiment: Cytotoxicity against Homo sapiens (human) SF295 cells after 48 hr by sulforhodamine B assay; conditions: SF-295, 48 h
SNB-75 = experiment: Cytotoxicity against Homo sapiens (human) SNB75 cells after 48 hr by sulforhodamine B assay; conditions: SNB-75, 48 h
NCI-H322M = experiment: Cytotoxicity against Homo sapiens (human) NCI-H322M cells after 48 hr by sulforhodamine B assay
HT-29 = experiment: Cytotoxicity against Homo sapiens (human) HT-29 cells after 48 hr by sulforhodamine B assay; conditions: HT-29, 48 h

Structure (SMILES): O=C(c1ccc(O)cc1)n1nc(-c2c(Cl)cccc2Cl)sc1=S
- GI50 (DU-145): 5.89 µM
- LC50 (DU-145): 79.4 µM
- TGI (DU-145; read-out: pTGI (converted)): 29.5 µM
- GI50 (786-0): 2.34 µM
- LC50 (786-0): 53.7 µM
- TGI (786-0; read-out: pTGI (converted)): 17 µM
- GI50 (RXF 393): 17.4 µM
- LC50 (RXF 393): > 100 µM
- TGI (RXF 393; read-out: pTGI (converted)): 51.3 µM
- GI50 (UO-31): 9.33 µM
- LC50 (UO-31): > 100 µM
- TGI (UO-31; read-out: pTGI): > 100 µM
- GI50 (A549): 12.3 µM
- LC50 (A549): > 100 µM
- TGI (A549; read-out: pTGI (converted)): 58.9 µM
- GI50 (SF-539): 14.8 µM
- LC50 (SF-539): 58.9 µM
- TGI (SF-539; read-out: pTGI (converted)): 29.5 µM
- GI50 (LOX IMVI): 10 µM
- LC50 (LOX IMVI): 75.9 µM
- TGI (LOX IMVI; read-out: pTGI (converted)): 27.5 µM
- GI50 (SR): 1.51 µM
- LC50 (SR): > 100 µM
- TGI (SR; read-out: pTGI): > 100 µM
- GI50 (OVCAR-4): 11.5 µM
- LC50 (OVCAR-4): > 100 µM
- TGI (OVCAR-4; read-out: pTGI (converted)): 77.6 µM
- GI50 (T47D): 3.89 µM
- LC50 (T47D): > 100 µM
- TGI (T47D; read-out: pTGI (converted)): 32.4 µM
- GI50 (ACHN): 7.76 µM
- LC50 (ACHN): > 100 µM
- TGI (ACHN; read-out: pTGI (converted)): 41.7 µM
- GI50 (SK-MEL-2): 14.5 µM
- LC50 (SK-MEL-2): 95.5 µM
- TGI (SK-MEL-2; read-out: pTGI (converted)): 37.2 µM
- GI50 (UACC-257): 14.1 µM
- LC50 (UACC-257): > 100 µM
- TGI (UACC-257; read-out: pTGI (converted)): 41.7 µM
- GI50 (OVCAR-5): 19.5 µM
- LC50 (OVCAR-5): > 100 µM
- TGI (OVCAR-5; read-out: pTGI (converted)): 61.7 µM
- GI50 (U-251): 11.5 µM
- LC50 (U-251): 91.2 µM
- TGI (U-251; read-out: pTGI (converted)): 32.4 µM
- GI50 (NCI-H460): 9.33 µM
- LC50 (NCI-H460): 75.9 µM
- TGI (NCI-H460; read-out: pTGI (converted)): 26.3 µM
- GI50 (UACC-62): 9.55 µM
- LC50 (UACC-62): 58.9 µM
- TGI (UACC-62; read-out: pTGI (converted)): 24 µM
- GI50 [1]: 10 µM
- LC50 [1]: > 100 µM
- TGI ([1]; read-out: pTGI (converted)): 49 µM
- GI50 (TK-10): 4.47 µM
- LC50 (TK-10): > 100 µM
- TGI (TK-10; read-out: pTGI (converted)): 42.7 µM
- GI50 (K562): 3.39 µM
- LC50 (K562): > 100 µM
- TGI (K562; read-out: pTGI (converted)): 28.8 µM
- GI50 (KM12): 3.8 µM
- LC50 (KM12): 41.7 µM
- TGI (KM12; read-out: pTGI (converted)): 14.8 µM
- GI50 (SK-MEL-28): 16.2 µM
- LC50 (concentration killing 50% of cells) (SK-MEL-28): 87.1 µM
- TGI (SK-MEL-28; read-out: pTGI (converted)): 37.2 µM
- GI50 (EKVX): 5.01 µM
- LC50 (EKVX): > 100 µM
- TGI (EKVX; read-out: pTGI (converted)): 69.2 µM
- GI50 (SF-268): 7.59 µM
- LC50 (SF-268): > 100 µM
- TGI (SF-268; read-out: pTGI (converted)): 34.7 µM
- GI50 (NCI-H226): 12.9 µM
- LC50 (NCI-H226): > 100 µM
- TGI (NCI-H226; read-out: pTGI (converted)): 57.5 µM
- GI50 (PC-3): 3.31 µM
- LC50 (PC-3): > 100 µM
- TGI (PC-3; read-out: pTGI (converted)): 30.2 µM
- GI50 (HCT-15): 6.46 µM
- LC50 (concentration killing 50% of cells) (HCT-15): > 100 µM
- TGI (HCT-15; read-out: pTGI (converted)): 32.4 µM
- GI50 (SF-295): 5.13 µM
- LC50 (SF-295): > 100 µM
- TGI (SF-295; read-out: pTGI (converted)): 29.5 µM
- GI50 (SNB-75): 16.6 µM
- LC50 (SNB-75): > 100 µM
- TGI (SNB-75; read-out: pTGI (converted)): 50.1 µM
- GI50 (NCI-H322M): 15.1 µM
- LC50 (NCI-H322M): > 100 µM
- TGI (NCI-H322M; read-out: pTGI (converted)): 66.1 µM
- GI50 (HT-29): 8.32 µM
- LC50 (HT-29): 53.7 µM
- TGI (HT-29; read-out: pTGI (converted)): 22.9 µM
